Assay results: ChEMBL document CHEMBL4368907 (J Med Chem, 2019)
Numbered stars: 1 amine (or outer) side, 2 acyl side, 3 side chain; on linkers, the order of the positions; unused ones are H or OH. Square brackets hold non-standard residues; d marks the D form. Side chains are listed from the residue outwards. Peptide text beside a SMILES is read from it. * marks the point of attachment. Phe(4-CH2SO3H) = N[C@@H](Cc1ccc(CS(=O)(=O)O)cc1)C(=O)O; sY = N[C@@H](Cc1ccc(OS(=O)(=O)O)cc1)C(=O)O; C18 diacid = O=C(O)CCCCCCCCCCCCCCCCC(=O)*; C16 diacid = O=C(O)CCCCCCCCCCCCCCC(=O)*; γGlu = O=C(O)[C@H](CCC(=O)[*:2])N[*:1]; 1Nal = N[C@@H](Cc1cccc2ccccc12)C(=O)O; Glutaryl = O=C(CCCC(=O)[*:2])[*:1]; Hyp = O=C(O)[C@@H]1C[C@@H](O)CN1; NMeF = CN[C@@H](Cc1ccccc1)C(=O)O; NMeD = CN[C@@H](CC(=O)O)C(=O)O; dNMeD = CN[C@H](CC(=O)O)C(=O)O; NH(2-Me-phenyl) = Cc1ccccc1N*; Nle = CCCC[C@H](N)C(=O)O; X1 = O=C(Cc1ccc(O)cc1)*; Dap = NC[C@H](N)C(=O)O; AEEA = NCCOCCOCC(=O)O; CO = O=C([*:1])[*:2]; βAla = NCCC(=O)O

Assays:
[1] = biological target: T1, Gastrin/cholecystokinin type B receptor (Homo sapiens, UniProt P32239); assay: Displacement of [125I]-CCK-8 from human CCK2R expressed in human 1321N1 cell membranes after 2 hrs by SPA assay
T1 sequence (P32239 whole entry): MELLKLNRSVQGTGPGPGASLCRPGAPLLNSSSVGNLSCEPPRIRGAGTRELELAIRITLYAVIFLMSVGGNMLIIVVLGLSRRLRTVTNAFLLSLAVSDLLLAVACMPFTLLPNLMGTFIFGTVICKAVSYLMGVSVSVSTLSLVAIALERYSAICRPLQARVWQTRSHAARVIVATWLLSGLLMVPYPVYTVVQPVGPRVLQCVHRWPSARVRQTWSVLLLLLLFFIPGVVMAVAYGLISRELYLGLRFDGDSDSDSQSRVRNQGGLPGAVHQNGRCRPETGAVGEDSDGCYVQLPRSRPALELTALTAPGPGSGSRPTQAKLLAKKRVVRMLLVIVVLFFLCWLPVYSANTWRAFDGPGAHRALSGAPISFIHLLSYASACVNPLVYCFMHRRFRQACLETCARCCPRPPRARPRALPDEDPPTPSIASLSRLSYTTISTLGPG

[2] = biological target: T1, Gastrin/cholecystokinin type B receptor; assay: Agonist activity at human CCK2R expressed in human 1321N1 cells assessed as IP1 accumulation after 1 hr by HTRF assay; assay type: functional, cell-based
[3] = biological target: T2, Cholecystokinin receptor type A (Homo sapiens, UniProt P32238); assay: Agonist activity at human CCK1R expressed in human 1321N1 cells assessed as IP1 accumulation after 1 hr by HTRF assay; assay type: functional, cell-based
T2 sequence (P32238 whole entry): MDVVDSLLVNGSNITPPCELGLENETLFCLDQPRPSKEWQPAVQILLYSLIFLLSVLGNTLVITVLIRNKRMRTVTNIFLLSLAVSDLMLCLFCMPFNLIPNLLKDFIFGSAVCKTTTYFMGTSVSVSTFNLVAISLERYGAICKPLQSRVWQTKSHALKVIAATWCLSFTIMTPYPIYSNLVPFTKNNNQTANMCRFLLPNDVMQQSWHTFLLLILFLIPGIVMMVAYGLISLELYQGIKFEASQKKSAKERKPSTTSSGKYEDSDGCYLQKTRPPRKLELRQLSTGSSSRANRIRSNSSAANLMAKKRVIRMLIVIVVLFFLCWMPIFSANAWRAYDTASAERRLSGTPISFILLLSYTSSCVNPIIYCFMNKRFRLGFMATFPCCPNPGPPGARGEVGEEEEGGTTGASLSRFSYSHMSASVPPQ

[4] = biological target: T2, Cholecystokinin receptor type A; assay: Displacement of [125I]-CCK-8 from human CCK1R expressed in human 1321N1 cell membranes after 2 hrs by SPA assay

IC50 [1] [nM]	EC50 [2] [nM]	EC50 [3] [nM]	IC50 [4] [nM]	Structure (SMILES)
5.75	0.38	229	832	CCCC[C@H](NC(=O)[C@H](CNC(=O)CCCC(=O)O)NC(=O)[C@H](CC(=O)O)NC(=O)COCCOCCNC(=O)COCCOCCNC(=O)CC[C@H](NC(=O)CCCCCCCCCCCCCCCCC(=O)O)C(=O)O)C(=O)NCC(=O)N[C@@H](Cc1c[nH]c2ccccc12)C(=O)N[C@@H](CCCC)C(=O)N[C@@H](CC(=O)O)C(=O)N[C@@H](Cc1ccccc1)C(N)=O ({C18 diacid-γGlu-AEEA-AEEA}-D[Dap](Glutaryl)[Nle]GW[Nle]DF-NH2)
0.132	0.417	0.324	2.24	CCCC[C@H](NC(=O)[C@H](Cc1ccc(OS(=O)(=O)O)cc1)NC(=O)[C@H](CC(=O)O)NC(=O)COCCOCCNC(=O)COCCOCCNC(=O)CC[C@H](NC(=O)CCCCCCCCCCCCCCCCC(=O)O)C(=O)O)C(=O)NCC(=O)N[C@@H](Cc1c[nH]c2ccccc12)C(=O)N[C@@H](CCCC)C(=O)N[C@@H](CC(=O)O)C(=O)N[C@@H](Cc1c[nH]c2ccccc12)C(N)=O ({C18 diacid-γGlu-AEEA-AEEA}-D[sY][Nle]GW[Nle]DW-NH2)
0.158	0.295	0.166	1.26	CCCC[C@H](NC(=O)[C@H](Cc1c[nH]c2ccccc12)NC(=O)CNC(=O)[C@H](CCC(=O)O)NC(=O)[C@H](Cc1ccc(OS(=O)(=O)O)cc1)NC(=O)[C@H](CC(=O)O)NC(=O)COCCOCCNC(=O)COCCOCCNC(=O)CC[C@H](NC(=O)CCCCCCCCCCCCCCCCC(=O)O)C(=O)O)C(=O)N[C@@H](CC(=O)O)C(=O)N[C@@H](Cc1ccccc1)C(N)=O ({C18 diacid-γGlu-AEEA-AEEA}-D[sY]EGW[Nle]DF-NH2)
0.0933	0.407	0.162	0.0759	CCCC[C@H](NC(=O)[C@H](Cc1ccc(OS(=O)(=O)O)cc1)NC(=O)[C@H](CC(=O)O)NC(=O)COCCOCCNC(=O)COCCOCCNC(=O)CC[C@H](NC(=O)CCCCCCCCCCCCCCCCC(=O)O)C(=O)O)C(=O)NCC(=O)N[C@@H](Cc1c[nH]c2ccccc12)C(=O)N[C@@H](CCCC)C(=O)N[C@@H](CC(=O)O)C(=O)N[C@@H](Cc1cccc2ccccc12)C(N)=O ({C18 diacid-γGlu-AEEA-AEEA}-D[sY][Nle]GW[Nle]D[1Nal]-NH2)
> 10000	> 1000	0.115	0.479	CCCC[C@H](NC(=O)[C@H](Cc1ccc(OS(=O)(=O)O)cc1)NC(=O)[C@H](CC(=O)O)NC(=O)COCCOCCNC(=O)COCCOCCNC(=O)CC[C@H](NC(=O)CCCCCCCCCCCCCCCCC(=O)O)C(=O)O)C(=O)NCC(=O)N[C@@H](Cc1c[nH]c2ccccc12)C(=O)N[C@@H](CCCCNC(=O)Nc1ccccc1C)C(=O)N(C)[C@@H](CC(=O)O)C(=O)N(C)[C@@H](Cc1ccccc1)C(N)=O ({C18 diacid-γGlu-AEEA-AEEA}-D[sY][Nle]GWK([CO-NH(2-Me-phenyl)])[NMeD][NMeF]-NH2)
3020	195	9.12	15.5	CCCC[C@H](NC(=O)Cc1ccc(O)cc1)C(=O)NCC(=O)N[C@@H](Cc1c[nH]c2ccccc12)C(=O)N[C@@H](CCCC)C(=O)N(C)[C@@H](CC(=O)O)C(=O)N[C@@H](Cc1ccccc1)C(N)=O (X1-[Nle]GW[Nle][NMeD]F-NH2)
0.151	0.437	> 1000	3980	CCCC[C@H](NC(=O)[C@H](Cc1c[nH]c2ccccc12)NC(=O)[C@H](CCC(=O)O)NC(=O)[C@H](CCCC)NC(=O)[C@H](Cc1ccc(OS(=O)(=O)O)cc1)NC(=O)[C@H](CC(=O)O)NC(=O)COCCOCCNC(=O)COCCOCCNC(=O)CC[C@H](NC(=O)CCCCCCCCCCCCCCCCC(=O)O)C(=O)O)C(=O)N[C@@H](CC(=O)O)C(=O)N[C@@H](Cc1ccccc1)C(N)=O ({C18 diacid-γGlu-AEEA-AEEA}-D[sY][Nle]EW[Nle]DF-NH2)
457	25.7	1.12	3.02	CCCC[C@H](NC(=O)[C@H](Cc1ccc(OS(=O)(=O)O)cc1)NC(=O)[C@H](CC(=O)O)NC(=O)COCCOCCNC(=O)COCCOCCNC(=O)CC[C@H](NC(=O)CCCCCCCCCCCCCCCCC(=O)O)C(=O)O)C(=O)NCC(=O)N[C@@H](Cc1c[nH]c2ccccc12)C(=O)N[C@@H](CCCC)C(=O)N1C[C@H](O)C[C@H]1C(=O)N[C@@H](Cc1ccccc1)C(N)=O ({C18 diacid-γGlu-AEEA-AEEA}-D[sY][Nle]GW[Nle][Hyp]F-NH2)
245	1.55			CCCC[C@H](NC(=O)[C@H](Cc1c[nH]c2ccccc12)NC(=O)CNC(=O)[C@H](CC(C)C)NC(=O)[C@H](Cc1ccc(OS(=O)(=O)O)cc1)NC(=O)[C@H](CC(=O)O)NC(=O)COCCOCCNC(=O)COCCOCCNC(=O)CC[C@H](NC(=O)CCCCCCCCCCCCCCCCC(=O)O)C(=O)O)C(=O)N(C)[C@@H](CC(=O)O)C(=O)N[C@@H](Cc1ccccc1)C(N)=O
0.589	0.38	603	933	CCCC[C@H](NC(=O)[C@H](Cc1c[nH]c2ccccc12)NC(=O)[C@@H]1CCCN1C(=O)[C@H](CCCC)NC(=O)[C@H](Cc1ccc(OS(=O)(=O)O)cc1)NC(=O)[C@H](CC(=O)O)NC(=O)COCCOCCNC(=O)COCCOCCNC(=O)CC[C@H](NC(=O)CCCCCCCCCCCCCCCCC(=O)O)C(=O)O)C(=O)N[C@@H](CC(=O)O)C(=O)N[C@@H](Cc1ccccc1)C(N)=O ({C18 diacid-γGlu-AEEA-AEEA}-D[sY][Nle]PW[Nle]DF-NH2)
0.398	0.316	117	219	CCCC[C@H](NC(=O)[C@H](Cc1c[nH]c2ccccc12)NC(=O)CCNC(=O)[C@H](CC(C)C)NC(=O)[C@H](Cc1ccc(OS(=O)(=O)O)cc1)NC(=O)[C@H](CC(=O)O)NC(=O)COCCOCCNC(=O)COCCOCCNC(=O)CC[C@H](NC(=O)CCCCCCCCCCCCCCCCC(=O)O)C(=O)O)C(=O)N[C@@H](CC(=O)O)C(=O)N[C@@H](Cc1ccccc1)C(N)=O ({C18 diacid-γGlu-AEEA-AEEA}-D[sY]L[βAla]W[Nle]DF-NH2)
		0.191		CCCC[C@H](NC(=O)[C@H](Cc1c[nH]c2ccccc12)NC(=O)CNC(=O)[C@H](CC(C)C)NC(=O)[C@H](Cc1ccc(CS(=O)(=O)O)cc1)NC(=O)[C@H](CC(=O)O)NC(=O)COCCOCCNC(=O)COCCOCCNC(=O)CC[C@H](NC(=O)CCCCCCCCCCCCCCC(=O)O)C(=O)O)C(=O)N(C)[C@H](CC(=O)O)C(=O)N(C)[C@@H](Cc1ccccc1)C(N)=O ({C16 diacid-γGlu-AEEA-AEEA}-D[Phe(4-CH2SO3H)]LGW[Nle][dNMeD][NMeF]-NH2)
		269	851	CSCC[C@H](NC(=O)[C@H](Cc1c[nH]c2ccccc12)NC(=O)CNC(=O)[C@H](Cc1ccc(O)cc1)NC(=O)[C@H](C)NC(=O)[C@H](CCC(=O)O)NC(=O)[C@H](CCC(=O)O)NC(=O)[C@H](CCC(=O)O)NC(=O)[C@H](CCC(=O)O)NC(=O)[C@H](CCC(=O)O)NC(=O)[C@H](CC(C)C)NC(=O)[C@H](Cc1c[nH]c2ccccc12)NC(=O)[C@@H]1CCCN1C(=O)CNC(=O)[C@@H]1CCC(=O)N1)C(=O)N[C@@H](CC(=O)O)C(=O)N[C@@H](Cc1ccccc1)C(N)=O
		0.166	0.617	CC(C)C[C@H](NC(=O)[C@H](Cc1ccc(OS(=O)(=O)O)cc1)NC(=O)[C@H](CC(=O)O)NC(=O)COCCOCCNC(=O)COCCOCCNC(=O)CC[C@H](NC(=O)CCCCCCCCCCCCCCCCC(=O)O)C(=O)O)C(=O)NCC(=O)N[C@@H](Cc1c[nH]c2ccccc12)C(=O)N[C@@H](C)C(=O)N(C)[C@H](CC(=O)O)C(=O)N(C)[C@@H](Cc1ccccc1)C(N)=O ({C18 diacid-γGlu-AEEA-AEEA}-D[sY]LGWA[dNMeD][NMeF]-NH2)
5620	132			CCCC[C@H](NC(=O)[C@H](Cc1c[nH]c2ccccc12)NC(=O)CNC(=O)[C@H](CC(C)C)NC(=O)[C@H](Cc1ccc(OS(=O)(=O)O)cc1)NC(=O)[C@H](CC(=O)O)NC(=O)COCCOCCNC(=O)COCCOCCNC(=O)CC[C@H](NC(=O)CCCCCCCCCCCCCCCCC(=O)O)C(=O)O)C(=O)N(C)[C@H](CC(=O)O)C(=O)N[C@@H](Cc1ccccc1)C(N)=O
	123	0.363	0.0741	CCCC[C@H](NC(=O)[C@H](Cc1c[nH]c2ccccc12)NC(=O)CNC(=O)[C@H](CC(C)C)NC(=O)[C@H](Cc1ccc(OS(=O)(=O)O)cc1)NC(=O)[C@H](CC(=O)O)NC(=O)COCCOCCNC(=O)COCCOCCNC(=O)CC[C@H](NC(=O)CCCCCCCCCCCCCCCCC(=O)O)C(=O)O)C(=O)N(C)[C@H](CC(=O)O)C(=O)N(C)[C@@H](Cc1ccccc1)C(N)=O
